Test results taken from ChEMBL document CHEMBL5360603, “Diselenide Covalent Allosteric Inhibitors of Glutaminase with Strong In Vivo Anticancer Activity” (ACS Med Chem Lett, 2023).
The source made the active and inactive calls. The calls are words filed in the database; no cut-off is given here. Starred links: 1 amine or outer side, 2 acyl side, 3 side chain; linkers in the order of their positions; H or OH if unused. Positions of bridges follow the written chain, without caps; N, C: chain ends. Non-standard residues stand in square brackets, D forms with d. Residues, ends and D or L forms follow the SMILES beside them. Chains are numbered I, II in the order given. Actinocin(9to1) = Cc1c2oc3c(C)ccc(C(=O)[*:1])c3nc-2c(C(=O)[*:2])c(N)c1=O; NMeV = CN[C@H](C(=O)O)C(C)C; Sar = CNCC(=O)O

Legend:
[1] = Toxicity in ICR mouse xenografted with mouse H22 cells assessed as body weight loss at 0.25 mg/kg,SC for 10 consecutive days; assay type: organism-based; details: in vivo
[2] = test system: H22; assay: Antitumor activity against mouse H22 cells xenografted in ICR mouse assessed as tumor growth inhibition at 0.25 mg/kg,SC for 10 consecutive days; assay type: functional, organism-based
[3] = test system: A549; assay: Antiproliferative activity against human A549 cells assessed as cell growth inhibition incubated for 5 days by EZMTT assay; assay type: functional, cell-based; details: A549, 120 h
[4] = biological target: T1, Glutaminase kidney isoform, mitochondrial (Homo sapiens, UniProt O94925); assay: Negative allosteric modulator activity at human wildtype KGA incubated for 5 hrs in presence of GDH and NADP by EZMTT assay
T1 sequence (O94925 whole entry): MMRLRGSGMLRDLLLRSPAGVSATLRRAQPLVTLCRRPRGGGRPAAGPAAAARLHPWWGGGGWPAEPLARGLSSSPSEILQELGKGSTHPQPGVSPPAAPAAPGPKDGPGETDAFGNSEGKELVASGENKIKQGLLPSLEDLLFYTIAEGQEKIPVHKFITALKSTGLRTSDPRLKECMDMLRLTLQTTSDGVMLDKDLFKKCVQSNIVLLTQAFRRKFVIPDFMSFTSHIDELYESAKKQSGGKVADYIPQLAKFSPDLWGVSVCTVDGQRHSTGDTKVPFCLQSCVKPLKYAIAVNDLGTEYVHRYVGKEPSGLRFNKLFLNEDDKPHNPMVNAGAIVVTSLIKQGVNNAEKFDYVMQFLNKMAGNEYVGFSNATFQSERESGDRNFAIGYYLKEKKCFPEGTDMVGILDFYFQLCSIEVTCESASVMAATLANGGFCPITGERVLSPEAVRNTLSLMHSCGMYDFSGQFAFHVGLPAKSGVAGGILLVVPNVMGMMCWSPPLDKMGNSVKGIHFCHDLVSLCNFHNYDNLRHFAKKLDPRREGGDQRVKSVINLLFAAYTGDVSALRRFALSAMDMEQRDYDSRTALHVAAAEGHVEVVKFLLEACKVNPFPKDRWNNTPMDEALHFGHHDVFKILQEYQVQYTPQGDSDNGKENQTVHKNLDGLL

[5] = Negative allosteric modulator activity at Escherichia coli GDH incubated for 1.5 hrs in presence of glutamate and NADP by EZMTT assay
[6] = test system: H22; assay: Antiproliferative activity against mouse H22 cells assessed as cell growth inhibition incubated for 5 days by EZMTT assay; assay type: functional, cell-based; details: H22, 120 h
[7] = biological target: Thioredoxin reductase (Escherichia coli (strain K12), UniProt P0A9P4); assay: Negative allosteric modulator activity at Escherichia coli TrxR using DTNB as substrate preincubated for 20 mins followed by substrate addition in presence of NADPH and measured after 60 mins
[8] = Negative allosteric modulator activity at human KGA K320A mutant using glutamine as substrate preincubated for 1 hr followed by substrate addition in presence of GDH and NADP and measured after 4 hrs by EZMTT reagent based dilution assay
[9] = Toxicity in ICR mouse xenografted with mouse H22 cells assessed as body weight loss at 10 mg/kg,SC for 10 consecutive days; assay type: organism-based; details: in vivo
[10] = Toxicity in ICR mouse xenografted with mouse H22 cells assessed as change in body weight at 30 mg/kg,SC for 10 consecutive days and measured after 32 days; assay type: organism-based; details: in vivo, 768 h, time 32 day
[11] = test system: HGC-27; assay: Antiproliferative activity against human HGC-27 cells assessed as cell growth inhibition incubated for 5 days by EZMTT assay; assay type: functional, cell-based; details: HGC-27, 120 h
[12] = test system: H22; assay: Antitumor activity against mouse H22 cells xenografted in ICR mouse assessed as reduction in tumor size at 10 mg/kg,SC for 10 consecutive days; assay type: functional; design: scale not given: the % may be the effect or the level left
[13] = test system: U-251; assay: Antiproliferative activity against human U-251 cells assessed as cell growth inhibition incubated for 5 days by EZMTT assay; assay type: functional, cell-based; details: U-251, 120 h
[14] = test system: KATO III stomach cancer cell line; assay: Antiproliferative activity against human KATO III stomach cancer cell line assessed as cell growth inhibition incubated for 5 days by EZMTT assay; assay type: functional, cell-based; details: 120 h
[15] = biological target: T1, Glutaminase kidney isoform, mitochondrial; assay: Negative allosteric modulator activity at human wildtype KGA using glutamine as substrate preincubated for 1 hr followed by substrate addition in presence of GDH and NADP and measured after 4 hrs by EZMTT reagent based dilution assay
[16] = Toxicity in ICR mouse xenografted with mouse H22 cells assessed as change in body weight at 10 mg/kg,SC for 10 consecutive days and measured after 32 days; assay type: organism-based; details: in vivo, 768 h, time 32 day
[17] = test system: ACHN; assay: Antiproliferative activity against human ACHN cells assessed as cell growth inhibition incubated for 5 days by EZMTT assay; assay type: functional, cell-based; details: 120 h
[18] = test system: HepG2; assay: Antiproliferative activity against human HepG2 cells assessed as cell growth inhibition incubated for 5 days by EZMTT assay; assay type: functional, cell-based; details: HepG2, 120 h
[19] = test system: CAKI-1; assay: Antiproliferative activity against human CAKI-1 cells assessed as cell growth inhibition incubated for 5 days by EZMTT assay; assay type: functional, cell-based; details: CAKI-1, 120 h
[20] = test system: H22; assay: Antitumor activity against mouse H22 cells xenografted in ICR mouse assessed as increase in survival time at SC administration for 10 consecutive days and measured after 32 days; assay type: functional; details: time 32.0 day
[21] = Toxicity in ICR mouse xenografted with mouse H22 cells assessed as change in body weight at 1 to 10 mg/kg,SC for 10 consecutive days and measured after 32 days; assay type: organism-based; details: in vivo, 768 h, dose 1-10 mg/kg, time 32 day
[22] = biological target: T2, Glutaminase kidney isoform, mitochondrial (Homo sapiens) (UniProt O94925); assay: Binding affinity to human biotinylated wildtype KGA at 0.01 to 1 uM by biolayer interferometry assay; details: filed as negative allosteric modulator, dose 0.01-1 µM
T2 sequence (whole entry): T1 sequence (O94925 whole entry)

[23] = organism: Homo sapiens; assay: Binding affinity to human biotinylated KGA K320A mutant at 0.01 to 1 uM by biolayer interferometry assay; details: dose 0.01-1 µM
[24] = test system: H22; assay: Antitumor activity against mouse H22 cells xenografted in ICR mouse assessed as increase in survival time at 10 mg/kg,SC administration for 10 consecutive days and measured after 32 days; assay type: functional, organism-based; details: time 32.0 day
[25] = organism: Homo sapiens; assay: Binding affinity to human biotinylated KGA K320A mutant at 1 to 10 uM by biolayer interferometry assay; details: dose 1-10 µM

Thioredoxin reductase, sequence (P0A9P4 whole entry): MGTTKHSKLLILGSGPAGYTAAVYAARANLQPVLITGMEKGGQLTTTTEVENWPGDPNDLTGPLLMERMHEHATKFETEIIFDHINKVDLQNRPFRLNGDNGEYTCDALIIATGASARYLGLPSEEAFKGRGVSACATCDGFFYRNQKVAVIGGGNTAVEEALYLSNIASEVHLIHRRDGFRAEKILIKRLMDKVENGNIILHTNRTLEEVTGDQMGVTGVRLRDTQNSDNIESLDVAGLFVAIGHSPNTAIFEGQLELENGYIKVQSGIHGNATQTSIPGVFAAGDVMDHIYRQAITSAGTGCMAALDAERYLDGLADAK

Compound	IC50 [3]	IC50 [4]	IC50 [5]	IC50 [6]	IC50 [7]	also measured
Cc1c2oc3c(C)ccc(C(=O)N[C@@H]4C(=O)N[C@H](C(C)C)C(=O)N5CCC[C@H]5C(=O)N(C)CC(=O)N(C)[C@@H](C(C)C)C(=O)O[C@@H]4C)c3nc-2c(C(=O)N[C@@H]2C(=O)N[C@H](C(C)C)C(=O)N3CCC[C@H]3C(=O)N(C)CC(=O)N(C)[C@@H](C(C)C)C(=O)O[C@@H]2C)c(N)c1=O [DACTINOMYCIN] (I: T[dV]P[Sar][NMeV] / II: T[dV]P[Sar][NMeV]; ester I:1-I:C, II:1-II:C; linker I:N-II:N via Actinocin(9to1))						Activity [1]: Toxic; Activity [2]: Active
Nc1nnc(CCCCCCc2nnc(N)s2)s1	> 10 µM	> 10 µM	> 10 µM	> 10 µM	> 10 µM	
O=c1[nH]n(CC[Se][Se]CCn2[nH]c(=O)c3ccccc3c2=O)c(=O)c2ccccc12	> 10 µM	1 µM	> 10 µM	> 10 µM	2.1 µM	
O=[N+]([O-])c1ccc2c(cnn2CC[Se][Se]CCn2ncc3cc([N+](=O)[O-])ccc32)c1	0.4 µM	0.4 µM	> 10 µM	8 µM	0.7 µM	
c1ccc(CC[Se][Se]CCc2ccccc2)cc1	> 10 µM	> 10 µM	> 10 µM	5.6 µM	13 µM	
O=C1c2ccccc2C(=O)N1CC[Se][Se]CCN1C(=O)c2ccccc2C1=O	1.6 µM	0.4 µM	> 10 µM	0.83 µM	0.7 µM	IC50 [8]: > 10 µM; Activity [9]: Non-Toxic; Activity [10]: Toxic; IC50 [11]: 1.2 µM; Activity [12]: ~70%; IC50 [13]: 1.6 µM; IC50 [14]: 1.65 µM; IC50 [15]: 2.1 µM; Activity [16]: Toxic; IC50 [17]: 2.1 µM; IC50 [18]: 1.9 µM; IC50 [19]: 3.3 µM; Activity [20]: Dose-Dependent Effect
Nc1nnc(CC[Se][Se]CCc2nnc(N)[se]2)[se]1	8 µM	3 µM	> 10 µM	2.6 µM	4 µM	
Cc1cc(C)n(CCSSCCn2nc(C)cc2C)n1	> 10 µM	> 10 µM	> 10 µM	> 10 µM	> 10 µM	
Cc1nn(CCSSCCn2nc(C)c(Cl)c2C)c(C)c1Cl	> 10 µM	> 10 µM	> 10 µM	> 10 µM	> 10 µM	
Cc1nn(CCC[Se]CCn2nc(C)c(Cl)c2C)c(C)c1Cl	> 10 µM	> 10 µM	> 10 µM	8 µM	> 10 µM	
O=C1c2ccccc2C(=O)N1CCSSCCN1C(=O)c2ccccc2C1=O	> 10 µM	> 10 µM	> 10 µM	> 10 µM	> 10 µM	
CCCCCCCC[Se][Se]CCCCCCCC	> 10 µM	> 10 µM	> 10 µM	> 10 µM	> 10 µM	
Cc1cc(C)n(CC[Se][Se]CCn2nc(C)cc2C)n1	1.7 µM	3.6 µM	> 10 µM	2.8 µM	3.7 µM	
Cc1nn(CC[Se][Se]CCn2nc(C)c3ccccc32)c2ccccc12	0.75 µM	0.2 µM	> 10 µM	3.5 µM	0.5 µM	IC50 [8]: > 10 µM; Activity [9]: Non-Toxic; Activity [21]: Toxic; Activity [12]: ~70%; Activity [22]: Active; IC50 [15]: 2.2 µM; Activity [23]: inactive; Activity [20]: Dose-Dependent Effect
O=C(Cc1cccc(OC(F)(F)F)c1)Nc1ccc(CCCCc2nnc(NC(=O)Cc3ccccn3)s2)nn1			> 10 µM	> 10 µM	> 10 µM	IC50 [8]: 0.3 µM; Activity [24]: inactive; Activity [25]: inactive
Nc1nnc(CC[Se][Se]CCc2nnc(N)s2)s1	9 µM	4 µM	> 10 µM	2.6 µM	3 µM	
Cc1nn(CCCCCCn2nc(C)c(Cl)c2C)c(C)c1Cl	> 10 µM	> 10 µM	> 10 µM	> 10 µM	> 10 µM	
Nc1nnc(CCCCCCc2nnc(N)[se]2)[se]1	> 10 µM	> 10 µM	> 10 µM	> 10 µM	> 10 µM	
Cc1nn(CC[Se][Se]CCn2nc(C)c(Cl)c2C)c(C)c1Cl	3 µM	0.54 µM	> 10 µM	4 µM	0.7 µM	
